Data from patent US8815260B1, “Treatment of restenosis and stenosis with dasatinib” (University of South Florida, priority 2005, dated 2014).
Like-named read-outs stand apart in the source and are kept apart here. Blank lines part the entries; values can stand above or below the molecule they belong to.

Legend:
STAT3, Akt, Erk2 [1] = experiment: PDGF-stimulated activation of STAT3, Akt and Erk2 in A10 cells (immunoblotting); type: cell-based, rat
PDGFRβ = PDGFRβ (Rattus norvegicus, UniProt Q05030); details: A10 cells
PDGFR = details: Buchdunger et al., 1996; Sanz-Gonzalez et al., 2004; cited from earlier work
[2] = cited from earlier work
A10 cells = experiment: Flow cytometric analysis of cell cycle phase distribution, PDGF-treated A10 cells; type: cell-based, rat; details: PDGF 10 ng/ml plus 50 nM
IGF-1R = IGF-1R (Rattus norvegicus, UniProt P24062); details: A10 cells, up to 50 nM, IGF-1 10 ng/ml 10 min
STAT3, Akt, Erk2 [3] = experiment: PDGF-stimulated activation of STAT3, Akt and Erk2 in primary human AoSMCs; type: cell-based; details: 0-50 nM, not reduced below basal activation state
porcine SMC = details: Banai et al., 1998; cited from earlier work

PDGFRβ, sequence (Q05030 32-1097): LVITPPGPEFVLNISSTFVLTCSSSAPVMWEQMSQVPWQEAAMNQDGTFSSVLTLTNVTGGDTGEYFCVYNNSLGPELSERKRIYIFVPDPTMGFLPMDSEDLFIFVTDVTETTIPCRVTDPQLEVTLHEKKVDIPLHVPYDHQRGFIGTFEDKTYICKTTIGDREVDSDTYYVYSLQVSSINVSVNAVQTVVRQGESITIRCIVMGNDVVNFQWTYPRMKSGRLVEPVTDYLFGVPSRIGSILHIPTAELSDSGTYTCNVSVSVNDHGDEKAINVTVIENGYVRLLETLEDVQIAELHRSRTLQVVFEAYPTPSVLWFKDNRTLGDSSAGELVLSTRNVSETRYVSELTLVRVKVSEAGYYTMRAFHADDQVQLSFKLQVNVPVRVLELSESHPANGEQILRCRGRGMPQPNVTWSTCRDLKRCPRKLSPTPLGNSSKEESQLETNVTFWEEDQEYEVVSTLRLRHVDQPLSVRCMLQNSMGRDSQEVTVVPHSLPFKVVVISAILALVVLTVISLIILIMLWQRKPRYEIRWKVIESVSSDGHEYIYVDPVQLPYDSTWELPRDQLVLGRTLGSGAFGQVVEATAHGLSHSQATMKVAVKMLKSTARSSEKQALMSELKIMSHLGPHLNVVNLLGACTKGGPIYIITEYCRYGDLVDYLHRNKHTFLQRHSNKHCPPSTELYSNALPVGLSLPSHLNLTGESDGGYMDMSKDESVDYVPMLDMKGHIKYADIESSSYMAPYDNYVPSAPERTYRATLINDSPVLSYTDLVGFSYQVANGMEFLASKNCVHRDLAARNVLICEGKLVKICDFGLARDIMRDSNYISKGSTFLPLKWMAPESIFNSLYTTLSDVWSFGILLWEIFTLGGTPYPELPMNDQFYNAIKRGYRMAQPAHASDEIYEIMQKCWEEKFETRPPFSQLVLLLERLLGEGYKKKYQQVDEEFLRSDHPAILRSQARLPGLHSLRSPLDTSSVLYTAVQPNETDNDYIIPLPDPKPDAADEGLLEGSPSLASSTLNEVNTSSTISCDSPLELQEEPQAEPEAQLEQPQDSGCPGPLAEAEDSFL
IGF-1R, sequence (P24062 31-1370): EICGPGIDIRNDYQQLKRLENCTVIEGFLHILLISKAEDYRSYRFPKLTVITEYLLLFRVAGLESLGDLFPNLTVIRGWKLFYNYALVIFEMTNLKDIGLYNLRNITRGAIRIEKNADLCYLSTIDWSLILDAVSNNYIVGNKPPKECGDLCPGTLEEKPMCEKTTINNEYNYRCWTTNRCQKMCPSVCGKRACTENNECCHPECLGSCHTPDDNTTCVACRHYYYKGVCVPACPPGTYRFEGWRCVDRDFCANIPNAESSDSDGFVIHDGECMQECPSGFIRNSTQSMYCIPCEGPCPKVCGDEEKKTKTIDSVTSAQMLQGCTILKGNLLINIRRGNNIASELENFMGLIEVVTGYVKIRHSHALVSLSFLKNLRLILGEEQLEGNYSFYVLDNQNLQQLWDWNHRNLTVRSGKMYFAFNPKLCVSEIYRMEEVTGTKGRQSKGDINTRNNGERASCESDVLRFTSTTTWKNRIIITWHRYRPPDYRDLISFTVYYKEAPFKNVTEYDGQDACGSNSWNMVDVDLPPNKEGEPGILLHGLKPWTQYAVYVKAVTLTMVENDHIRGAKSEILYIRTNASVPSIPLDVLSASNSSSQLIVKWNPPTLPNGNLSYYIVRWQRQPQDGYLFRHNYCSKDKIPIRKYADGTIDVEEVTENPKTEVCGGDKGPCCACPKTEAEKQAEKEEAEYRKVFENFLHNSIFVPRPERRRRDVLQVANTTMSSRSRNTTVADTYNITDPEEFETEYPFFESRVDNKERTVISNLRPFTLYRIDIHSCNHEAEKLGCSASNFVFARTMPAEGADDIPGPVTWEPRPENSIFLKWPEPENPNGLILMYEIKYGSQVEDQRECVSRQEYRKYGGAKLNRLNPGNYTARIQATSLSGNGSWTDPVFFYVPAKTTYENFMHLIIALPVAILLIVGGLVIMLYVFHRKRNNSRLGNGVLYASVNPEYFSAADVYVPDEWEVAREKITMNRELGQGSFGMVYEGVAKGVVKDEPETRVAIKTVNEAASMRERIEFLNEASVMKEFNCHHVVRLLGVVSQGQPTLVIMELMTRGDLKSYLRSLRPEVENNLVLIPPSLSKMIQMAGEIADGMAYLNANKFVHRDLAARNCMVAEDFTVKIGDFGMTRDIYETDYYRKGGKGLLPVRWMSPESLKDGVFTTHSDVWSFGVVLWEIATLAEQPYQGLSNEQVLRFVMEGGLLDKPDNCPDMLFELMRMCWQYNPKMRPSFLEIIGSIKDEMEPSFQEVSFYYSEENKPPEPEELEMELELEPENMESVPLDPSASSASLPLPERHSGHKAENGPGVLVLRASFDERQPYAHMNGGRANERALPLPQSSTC

concentration required for the same level (complete block) of PDGFR inhibition (PDGFRβ; parallel experiments, PDGF-BB 5 ng/ml 5 min): 5 µM
Structure (SMILES): Cc1ccc(NC(=O)c2ccc(CN3CCN(C)CC3)cc2)cc1Nc1nccc(-c2cccnc2)n1 [imatinib]
concentration giving complete inhibition of PDGF-stimulated Akt and Erk2 activation (STAT3, Akt, Erk2 [1]; PDGF-BB 5 ng/ml 5 min): 5 µM | decrease in STAT3 tyrosine phosphorylation (STAT3, Akt, Erk2 [1]; PDGF-BB 5 ng/ml 5 min, relative to the 5 μM needed for Akt and Erk2): appeared at lower concentrations | concentrations required for inhibition of PDGFR in cell-based assays (PDGFR): micromolar concentrations

PDGF-stimulated PDGFRβ tyrosine phosphorylation (PDGFRβ; 50 nM, PDGF-BB 5 ng/ml, all time points (0-30 min)): effectively blocked | inhibition of IGF-1R tyrosine phosphorylation (IGF-1R): No detectable inhibition
Structure (SMILES): Cc1nc(Nc2ncc(C(=O)Nc3c(C)cccc3Cl)s2)cc(N2CCN(CCO)CC2)n1 [BMS-354825, N-(2-chloro-6-methylphenyl)-2-[[6-[4-[(2-hydroxyethyl)-1-piperazinyl]-2-methyl-4-pyrimidinyl]amino]-5-thiazolecarboxamide, monohydrate]
PDGF-stimulated activation of STAT3, Akt and Erk2 (activation-specific phosphorylation) (STAT3, Akt, Erk2 [1]; 50 nM, PDGF-BB 5 ng/ml): inhibited | Cmax ([2]; BMS-354825 dosing for CML, oral, read-out: Cmax): 60 to 120 nM | Cmax ([2]; oral delivery route, 140 mg/day): 30 to 60 ng/mL | percentage of cells in G2 phase (A10 cells; 16 h (PDGF alone 10.74%, no PDGF 0.99%)): 3.75% | percentage of cells in S phase (A10 cells; 16 h (PDGF alone 23.83%, no PDGF 10.4%)): 7.99% | percentage of cells in G1 phase (A10 cells; 16 h (PDGF alone 65.44%, no PDGF 88.65%)): 88.29% | PDGF-induced further activation of STAT3 (STAT3, Akt, Erk2 [3]): blocked

Structure (SMILES): Cc1cc2ncc(-c3ccccc3)nc2cc1C [AG-1295]
inhibition of porcine SMC proliferation, nature of the effect (porcine SMC): reversible and not toxic
